Data set [1] is described as follows: Metabolic stability in human liver microsomes. The following applies: for T1/2: 0.5 mg/ml microsomal protein, n = 2. As for the experimental part: Then, this incubation plate containing mixed solution and NADPH regeneration system was agitated on a plate shaker at 100 rpm and pre-incubated at 37°C for 5 min. Subsequently, 300 μL of precooled quenching solution was added to each well of another deep-well plate (quench plate), which was cooled on ice. The solution in the incubation plate was transferred into the well of the quench plate as the samples in 0 min before it was mixed with another 20 µL of NADPH regeneration solution in the wells.
The incubation plate was incubated at 37°C for 0, 10, 30, and 90 min. At each time point, 100 μL of the supernatant in the incubation plate was removed from each well, quenched immediately, transferred to the wells of the ice-cold quench plate, and vortexed for 5 min. Additionally, an equal volume of pre-warmed fresh regeneration solution was added to the incubation plate for compensation after every withdrawal. […] Each test was operated in duplicate. The determination conditions of LC-MS/MS are shown in Support Materials (Supplementary Table S4).
The in vitro T1/2 was determined by converting the analyte/IS peak area ratios to percentage of drug remaining using the initial peak (t = 0 min) area ratio values as 100%.

The nature of a further data set: in vitro. The following applies: PAMPA. As for the experimental part: Verapamil and digoxin solutions, used as reference, prepared in the same manner as the test drugs. Tolbutamide dissolved with acetonitrile (200 ng/ml) was used as IS.
The resultant supernatants were determined by LC-MS/MS. The specific assay conditions are shown in Support Materials (Supplementary Table S2).
Background: In PAMPA a lipid-coated filter parts donor from acceptor wells.

Data set [2] in a line: Kinetic solubility test in PBS. The format is physicochemical. The following applies: phosphate-buffer saline (PBS), aqueous buffer, kinetic from dmso stock; PBS (100 mM, pH 7.4). Here is the method:
Internal standard (IS) solutions (propranolol and tolbutamide) were dissolved by acetonitrile (50 ng/ml propranolol + 200 ng/ml tolbutamide).
The sample solutions were analyzed using LC-MS/MS. All the samples (test samples and references) for detection were prepared in duplicate. The conditions for LC-MS/MS are shown in Support Materials (Supplementary Table S1).

Data set [3] concerns PE-constricted aortic rings. Briefly: Vasorelaxant effects on isolated PE-constricted aortic rings. Details: species or system SD rats. The following applies: 10^–6 M PE, n = 6. Here is the method: SD rats were anesthetized by exposure to ether, and the thoracic aorta was removed and immersed in Krebs-Henseleit (K-H) buffer ([Lee et al., 2013]) at 4°C. The connective tissues and fats around the aorta were carefully removed under the microscopes, and the blood was flushed. The aorta ring was cut into four sections approximately 3 mm long and suspended in organ chambers containing K-H buffer. The endothelium was also removed by gently rubbing the lumen of the vessel with a cotton swab. The aortic rings were placed in a 5 ml organ chambers of DMT multiwire myograph system (620M, Danish Myo Technology, Denmark) and were filled with K-H buffer aerated with 95% O2 and 5% CO2 at 37°C. The aortic rings were mounted on hooks connected to a tension transducer and a displacement device.
The initial vessel tension was slowly adjusted to 15 mN and maintained balanced for 60 min. The buffer was renewed once every 15 min. After equilibration, the vessel viability was pre-constricted by exposing the aortic rings to 60 mM KCl for 10 min ([Ding et al., 2019]). Then, the K-H buffer was continuously renewed to elute and restore the initial tension of the vascular ring to assay the vascular activity. The pre-treated operation was repeated two times, where the constriction amplitude after each KCl stimulation to reach the previous constriction amplitude was taken as the criterion, before the experiment continued. Subsequently, 10^–6 M PE was added to contract the blood vessel. After the constriction was stable, different concentrations of Ach (10^−9–10^–5 M) were used to dilate the vessels. Then, the vasorelaxation degree could be calculated with different Ach concentrations, as the following equation: Vasorelaxation degree (%)=Maxium constriction tension induced by PE−Minium diastolic tension induced by Ach/Maxium constriction tension induced by PE−Resting tension×100% (10) When the vasorelaxation degree corresponding to Ach (10^–5 M) is greater than 80%, the vascular endothelium is considered intact and functional. The endothelium is considered to be removed with a vasorelaxation degree of less than 20% ([Lee et al., 2013]). Endothelium-intact and endothelium-denuded aortic rings from the same aorta were tested.
After equilibration, the endothelium-intact and the endothelium-denuded aortic rings were pre-constricted with 10^–6 M PE in the K-H buffer system.
After equilibration, the endothelium-intact aortic rings were pre-constricted with 10^–6 M PE in the K-H buffer system. […] Then, the corresponding vasoconstrictive responses were examined and recorded.
In the vasorelaxant effects investigations, all the data are presented as mean ± SEM. Statistical analysis was performed using two-way ANOVA followed by Fisher’s least significant difference (LSD) test. Values at p < 0.05 were considered statistically significant.

In brackets after ≈: the same amount, converted by molar mass.

`COc1ccc2c(c1)[C@]13CCCC[C@@H]1[C@H](C2)N(C)CC3` [Dextromethorphan, dextromethorphan, reference compound]: the T1/2 in data set [1] (HLM with NADPH) is on record as 63.8 min. The microsomal CLint (commonly the capacity of the preparation to metabolise the compound, expressed as a volume cleared per time) in data set [1] (human, microsomes) was determined as 21.7 µL/min/mg. For `C[C@H]1O[C@@H](O[C@H]2[C@@H](O)C[C@H](O[C@H]3[C@@H](O)C[C@H](O[C@H]4CC[C@@]5(C)[C@H](CC[C@@H]6[C@@H]5C[C@@H](O)[C@]5(C)[C@@H](C7=CC(=O)OC7)CC[C@]65O)C4)O[C@@H]3C)O[C@@H]2C)C[C@H](O)[C@@H]1O` [Digoxin, digoxin, reference compound], the Papp – broadly, the rate of passage across a membrane or cell layer, normalised by area and donor concentration – at 18000 s in the data set “in vitro” is 0.589 ×10⁻⁶ cm/s. The molecule `COc1ccc2[nH]c([S+]([O-])Cc3ncc(C)c(OC)c3C)nc2c1` (stereo not drawn) [Omeprazole, omeprazole, reference compound] registered a T1/2 in data set [1] (RLM with NADPH) of 15.6 min. With `CC(=O)N1CCN(c2ccc(OCC3COC(Cn4ccnc4)(c4ccc(Cl)cc4Cl)O3)cc2)CC1` (stereo not drawn) [ketoconazole, reference compound], the solubility (kinetic) (in general, solubility judged after dilution from a stock solution rather than from solid) in data set [2] worked out at 38.9 ± 1.54 µg/mL (≈ 73.2 µM).

`COC(=O)C1=C(C)NC(C)=C(C(=O)OCCN(C)Cc2ccccc2)C1c1cccc([N+](=O)[O-])c1` (stereo not drawn) [nicardipine, reference compound] displayed a kinetic solubility in data set [2] of 9.94 ± 0.05 µg/mL (≈ 20.7 µM). In the case of Pinoresinol [PINL], in data set [3] (increasing concentration 25–200 μM), the “vasorelaxant effect on PE-constricted aortic rings” value was “concentration-dependent vasorelaxation”. Further, in data set [3] (PINL difference at 50–100 μM), the “vasorelaxation degree, endothelium-denuded versus endothelium-intact group” value is “significantly lower”. Besides, the “vasorelaxant response compared between groups” value in data set [3] (endothelium-intact rings, PINL vs PDG at 50 μM, combination vs single at 25, 50 and 100 μM) is “significantly better than in the PDG group”.

For the origin of these results see PMC8381248 (Frontiers in Pharmacology, 2021).
